Active and inactive are the calls of the source. The rule behind the calls is not given here.
Legend:
Aurora kinase A = target: T1, Aurora kinase A (Homo sapiens, UniProt O14965); assay: Inhibition of aurora-A (unknown origin)
T1 sequence (O14965 whole entry): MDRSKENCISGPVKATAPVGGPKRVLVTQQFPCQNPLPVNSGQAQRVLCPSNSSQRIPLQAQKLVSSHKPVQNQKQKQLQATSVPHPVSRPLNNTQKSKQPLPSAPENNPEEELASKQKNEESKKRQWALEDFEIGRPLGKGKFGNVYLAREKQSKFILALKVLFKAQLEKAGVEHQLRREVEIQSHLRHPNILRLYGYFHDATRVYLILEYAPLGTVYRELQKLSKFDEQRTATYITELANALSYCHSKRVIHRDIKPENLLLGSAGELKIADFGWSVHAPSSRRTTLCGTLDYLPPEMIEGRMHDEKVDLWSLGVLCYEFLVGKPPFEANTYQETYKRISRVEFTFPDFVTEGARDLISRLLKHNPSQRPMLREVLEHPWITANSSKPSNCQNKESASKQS

MIA PaCa-2 [1] = assay: Antiproliferative activity against human MIAPaCa2 cells; assay type: functional, cell-based
Aurora kinase B [2] = target: T2, Aurora kinase B (Homo sapiens, UniProt Q96GD4); assay: Inhibition of aurora-B (unknown origin)
T2 sequence (Q96GD4 whole entry, the tested form may be a part): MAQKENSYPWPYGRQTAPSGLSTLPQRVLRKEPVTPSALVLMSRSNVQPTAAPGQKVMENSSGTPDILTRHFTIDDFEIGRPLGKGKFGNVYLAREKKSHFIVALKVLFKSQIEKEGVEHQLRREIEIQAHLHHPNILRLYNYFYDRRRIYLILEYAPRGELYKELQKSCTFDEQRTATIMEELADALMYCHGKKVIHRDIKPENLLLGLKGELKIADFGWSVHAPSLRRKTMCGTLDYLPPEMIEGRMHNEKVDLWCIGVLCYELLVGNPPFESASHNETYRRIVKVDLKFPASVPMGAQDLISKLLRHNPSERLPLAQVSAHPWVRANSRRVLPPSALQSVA

LIM domain kinase 1 = LIM domain kinase 1 (Homo sapiens, UniProt P53667); assay: Inhibition of LIMK1 (unknown origin)
LIM domain kinase 1, sequence (P53667 whole entry, the tested form may be a part): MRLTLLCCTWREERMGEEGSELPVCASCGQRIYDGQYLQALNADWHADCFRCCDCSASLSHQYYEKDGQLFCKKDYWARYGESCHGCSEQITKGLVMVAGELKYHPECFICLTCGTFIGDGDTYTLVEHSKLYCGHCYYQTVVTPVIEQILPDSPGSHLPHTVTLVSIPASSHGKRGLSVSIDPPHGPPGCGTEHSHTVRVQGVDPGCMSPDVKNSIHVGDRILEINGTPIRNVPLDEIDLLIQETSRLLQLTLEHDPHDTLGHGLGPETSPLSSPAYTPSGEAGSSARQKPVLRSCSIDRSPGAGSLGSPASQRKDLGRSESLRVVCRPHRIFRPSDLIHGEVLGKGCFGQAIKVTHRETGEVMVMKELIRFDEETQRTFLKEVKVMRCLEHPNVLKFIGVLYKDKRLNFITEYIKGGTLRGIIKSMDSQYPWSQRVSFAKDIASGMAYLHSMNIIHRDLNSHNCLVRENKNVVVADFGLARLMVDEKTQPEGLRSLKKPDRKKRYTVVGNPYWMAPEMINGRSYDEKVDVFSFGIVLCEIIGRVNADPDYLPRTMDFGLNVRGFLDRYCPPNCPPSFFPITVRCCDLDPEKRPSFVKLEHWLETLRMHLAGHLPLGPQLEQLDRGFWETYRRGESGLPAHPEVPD

[3] = Oral bioavailability in mouse at 5 mg/kg; assay type: ADME, organism-based; conditions: in vivo
[4] = target: Serine/threonine-protein kinase Chk2 (Homo sapiens, UniProt O96017); assay: Inhibition of CHK2 (unknown origin)
Serine/threonine-protein kinase Chk2, sequence (O96017 whole entry): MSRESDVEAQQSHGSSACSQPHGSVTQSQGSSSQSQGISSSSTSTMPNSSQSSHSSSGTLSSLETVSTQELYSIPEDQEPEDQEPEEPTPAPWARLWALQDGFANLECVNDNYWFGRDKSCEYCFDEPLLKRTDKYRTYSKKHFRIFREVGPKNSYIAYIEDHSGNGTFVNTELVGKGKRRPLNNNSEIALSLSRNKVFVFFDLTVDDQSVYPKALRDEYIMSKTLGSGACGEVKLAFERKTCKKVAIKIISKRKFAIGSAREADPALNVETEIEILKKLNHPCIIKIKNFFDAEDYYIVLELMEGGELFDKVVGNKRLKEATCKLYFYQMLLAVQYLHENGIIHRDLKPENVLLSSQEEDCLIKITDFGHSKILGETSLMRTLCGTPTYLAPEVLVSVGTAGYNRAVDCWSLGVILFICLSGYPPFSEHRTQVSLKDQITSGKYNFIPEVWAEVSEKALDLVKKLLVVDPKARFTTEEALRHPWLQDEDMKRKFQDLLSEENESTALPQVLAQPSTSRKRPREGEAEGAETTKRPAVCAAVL

[5] = target: Tyrosine-protein kinase ABL2 (Homo sapiens, UniProt P42684); assay: Inhibition of Arg (unknown origin)
[6] = Clearance in mouse at 5 mg/kg, iv; assay type: ADME, organism-based; parameters: dose 5 mg/kg, route intravenous; conditions: in vivo
[7] = Volume of distribution at steady state in mouse at 5 mg/kg, iv; assay type: ADME, organism-based; parameters: dose 5 mg/kg, route intravenous; conditions: in vivo, read-out: Vdss
[8] = target: Proto-oncogene tyrosine-protein kinase receptor Ret (Homo sapiens, UniProt P07949); assay: Inhibition of Ret (unknown origin)
Proto-oncogene tyrosine-protein kinase receptor Ret, sequence (P07949 whole entry): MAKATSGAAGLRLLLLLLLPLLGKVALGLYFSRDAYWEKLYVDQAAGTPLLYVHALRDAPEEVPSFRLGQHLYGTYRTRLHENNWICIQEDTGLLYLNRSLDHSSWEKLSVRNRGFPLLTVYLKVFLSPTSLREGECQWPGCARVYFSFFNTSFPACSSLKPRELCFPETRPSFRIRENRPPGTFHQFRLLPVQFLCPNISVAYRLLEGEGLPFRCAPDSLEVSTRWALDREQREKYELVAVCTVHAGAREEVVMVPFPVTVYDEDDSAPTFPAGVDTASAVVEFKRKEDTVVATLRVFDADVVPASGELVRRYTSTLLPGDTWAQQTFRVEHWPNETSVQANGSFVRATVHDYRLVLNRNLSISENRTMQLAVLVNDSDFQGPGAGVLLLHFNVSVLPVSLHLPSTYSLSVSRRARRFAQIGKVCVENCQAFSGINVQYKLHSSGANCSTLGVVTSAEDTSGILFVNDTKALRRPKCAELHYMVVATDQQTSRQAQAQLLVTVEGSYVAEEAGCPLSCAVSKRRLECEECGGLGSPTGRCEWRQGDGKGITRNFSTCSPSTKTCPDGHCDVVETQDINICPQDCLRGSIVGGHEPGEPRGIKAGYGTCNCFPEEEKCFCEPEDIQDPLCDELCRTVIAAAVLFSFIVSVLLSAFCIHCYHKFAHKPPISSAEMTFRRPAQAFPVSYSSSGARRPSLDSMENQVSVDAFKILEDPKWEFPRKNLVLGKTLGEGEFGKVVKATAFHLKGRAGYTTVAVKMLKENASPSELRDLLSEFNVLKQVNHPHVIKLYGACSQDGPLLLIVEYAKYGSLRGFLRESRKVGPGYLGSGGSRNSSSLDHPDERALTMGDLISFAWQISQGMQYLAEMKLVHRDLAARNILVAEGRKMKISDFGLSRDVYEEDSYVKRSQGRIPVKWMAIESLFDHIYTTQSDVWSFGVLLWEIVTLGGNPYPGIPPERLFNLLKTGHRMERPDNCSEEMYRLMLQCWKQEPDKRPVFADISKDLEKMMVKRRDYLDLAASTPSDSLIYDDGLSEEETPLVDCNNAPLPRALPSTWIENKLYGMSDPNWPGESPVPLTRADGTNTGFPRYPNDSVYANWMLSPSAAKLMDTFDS

[9] = Half life in mouse at 5 mg/kg, po; assay type: ADME, organism-based; parameters: dose 5 mg/kg, route oral; conditions: in vivo
[10] = Cmax in mouse at 5 mg/kg, po; assay type: ADME, organism-based; parameters: dose 5 mg/kg, route oral; conditions: in vivo
MIA PaCa-2 [11] = assay: Induction of endoreduplication human MIAPaCa2 cells assessed as accumulation of cells with >4N DNA content after 24 hrs; assay type: functional, cell-based
[12] = AUC in mouse at 5 mg/kg, po; assay type: ADME, organism-based; parameters: dose 5 mg/kg, route oral; conditions: plasma
[13] = target: Macrophage colony-stimulating factor 1 receptor (Homo sapiens, UniProt P07333); assay: Inhibition of Fms (unknown origin)
[14] = target: Vascular endothelial growth factor receptor 3 (Homo sapiens, UniProt P35916); assay: Inhibition of Flt4 (unknown origin)
Vascular endothelial growth factor receptor 3, sequence (P35916 whole entry): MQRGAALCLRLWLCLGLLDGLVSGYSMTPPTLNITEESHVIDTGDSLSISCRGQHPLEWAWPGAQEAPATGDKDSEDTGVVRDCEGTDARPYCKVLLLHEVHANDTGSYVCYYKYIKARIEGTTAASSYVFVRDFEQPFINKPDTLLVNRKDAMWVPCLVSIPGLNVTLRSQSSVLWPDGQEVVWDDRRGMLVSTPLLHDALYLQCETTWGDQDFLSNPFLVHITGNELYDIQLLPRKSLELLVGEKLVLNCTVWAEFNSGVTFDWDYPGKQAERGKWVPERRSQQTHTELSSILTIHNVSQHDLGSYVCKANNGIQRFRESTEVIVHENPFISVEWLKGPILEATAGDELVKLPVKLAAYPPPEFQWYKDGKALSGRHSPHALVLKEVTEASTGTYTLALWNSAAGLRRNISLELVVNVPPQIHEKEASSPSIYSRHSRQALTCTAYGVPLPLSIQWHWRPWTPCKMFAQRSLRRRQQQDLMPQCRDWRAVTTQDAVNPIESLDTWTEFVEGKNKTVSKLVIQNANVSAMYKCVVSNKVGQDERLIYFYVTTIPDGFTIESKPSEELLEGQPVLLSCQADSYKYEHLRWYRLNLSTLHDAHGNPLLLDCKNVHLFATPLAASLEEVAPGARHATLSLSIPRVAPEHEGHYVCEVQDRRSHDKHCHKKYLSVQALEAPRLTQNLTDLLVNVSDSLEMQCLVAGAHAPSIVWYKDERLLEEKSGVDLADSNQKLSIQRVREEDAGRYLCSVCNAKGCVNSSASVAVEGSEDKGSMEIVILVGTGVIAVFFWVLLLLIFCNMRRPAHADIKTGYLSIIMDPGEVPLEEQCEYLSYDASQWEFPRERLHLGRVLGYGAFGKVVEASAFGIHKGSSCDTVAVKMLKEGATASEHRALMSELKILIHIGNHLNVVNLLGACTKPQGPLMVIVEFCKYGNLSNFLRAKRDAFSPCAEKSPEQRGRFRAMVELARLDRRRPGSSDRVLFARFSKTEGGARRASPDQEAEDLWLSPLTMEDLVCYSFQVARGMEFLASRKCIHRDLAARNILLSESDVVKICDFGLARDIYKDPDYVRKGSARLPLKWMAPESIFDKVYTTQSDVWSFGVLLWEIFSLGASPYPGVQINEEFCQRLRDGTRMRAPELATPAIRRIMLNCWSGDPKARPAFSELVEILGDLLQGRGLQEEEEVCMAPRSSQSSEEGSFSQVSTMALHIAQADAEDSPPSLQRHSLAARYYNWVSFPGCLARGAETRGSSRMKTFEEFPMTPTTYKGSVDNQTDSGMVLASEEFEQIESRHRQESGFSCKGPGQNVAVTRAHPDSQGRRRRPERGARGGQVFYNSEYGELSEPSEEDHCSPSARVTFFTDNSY

[15] = AUC in mouse at 5 mg/kg, iv; assay type: ADME, organism-based; parameters: dose 5 mg/kg, route intravenous; conditions: plasma
Mus musculus = assay: Inhibition of aurora-B in mouse bone marrow assessed as reduction of phosphorylation of histone H3 at 150 and 300 mg/kg, po after 2 hrs; assay type: functional
Aurora kinase B [16] = target: T2, Aurora kinase B; assay: Inhibition of aurora-B in human MIAPaCa2 cells assessed as reduction of phosphorylation of histone H3; assay type: cell-based, MIA PaCa-2
[17] = target: Tyrosine-protein kinase Blk (Homo sapiens, UniProt P51451); assay: Inhibition of Blk (unknown origin)
[18] = Cmax in mouse at 5 mg/kg, iv; assay type: ADME, organism-based; parameters: dose 5 mg/kg, route intravenous; conditions: in vivo
[19] = Half life in mouse at 5 mg/kg, iv; assay type: ADME, organism-based; parameters: dose 5 mg/kg, route intravenous; conditions: in vivo
Activated CDC42 kinase 1 = Activated CDC42 kinase 1 (Homo sapiens, UniProt Q07912); assay: Inhibition of ACK1 (unknown origin)
[20] = target: Fibroblast growth factor receptor 1 (Homo sapiens, UniProt P11362); assay: Inhibition of FGFR1 (unknown origin)
Fibroblast growth factor receptor 1, sequence (P11362 whole entry): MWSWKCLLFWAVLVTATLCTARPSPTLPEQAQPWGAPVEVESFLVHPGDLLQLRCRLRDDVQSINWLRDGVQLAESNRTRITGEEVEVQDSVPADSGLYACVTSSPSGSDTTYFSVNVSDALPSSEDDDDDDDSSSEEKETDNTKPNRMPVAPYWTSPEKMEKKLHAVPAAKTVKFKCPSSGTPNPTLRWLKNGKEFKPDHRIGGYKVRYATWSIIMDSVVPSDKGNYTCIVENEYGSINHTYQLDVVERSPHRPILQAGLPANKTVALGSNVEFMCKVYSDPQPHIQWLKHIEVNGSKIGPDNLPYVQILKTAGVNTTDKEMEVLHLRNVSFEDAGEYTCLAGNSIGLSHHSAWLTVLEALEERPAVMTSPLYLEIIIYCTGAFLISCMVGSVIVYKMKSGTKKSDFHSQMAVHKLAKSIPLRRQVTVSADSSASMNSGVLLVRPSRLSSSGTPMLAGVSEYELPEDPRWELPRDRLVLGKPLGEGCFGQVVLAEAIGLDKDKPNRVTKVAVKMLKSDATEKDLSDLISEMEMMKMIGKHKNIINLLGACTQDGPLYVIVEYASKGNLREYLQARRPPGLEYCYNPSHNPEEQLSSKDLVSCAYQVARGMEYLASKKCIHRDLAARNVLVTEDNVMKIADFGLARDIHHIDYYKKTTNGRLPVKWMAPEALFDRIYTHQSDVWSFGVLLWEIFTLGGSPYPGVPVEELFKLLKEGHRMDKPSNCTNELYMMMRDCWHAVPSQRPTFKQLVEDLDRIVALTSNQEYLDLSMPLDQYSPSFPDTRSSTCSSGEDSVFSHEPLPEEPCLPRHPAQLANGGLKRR

[21] = Solubility of the compound; assay type: physicochemical
[22] = target: T3, Mitogen-activated protein kinase 13 (Homo sapiens, UniProt O15264); assay: Inhibition of SAPK4 (unknown origin)
T3 sequence (O15264 whole entry): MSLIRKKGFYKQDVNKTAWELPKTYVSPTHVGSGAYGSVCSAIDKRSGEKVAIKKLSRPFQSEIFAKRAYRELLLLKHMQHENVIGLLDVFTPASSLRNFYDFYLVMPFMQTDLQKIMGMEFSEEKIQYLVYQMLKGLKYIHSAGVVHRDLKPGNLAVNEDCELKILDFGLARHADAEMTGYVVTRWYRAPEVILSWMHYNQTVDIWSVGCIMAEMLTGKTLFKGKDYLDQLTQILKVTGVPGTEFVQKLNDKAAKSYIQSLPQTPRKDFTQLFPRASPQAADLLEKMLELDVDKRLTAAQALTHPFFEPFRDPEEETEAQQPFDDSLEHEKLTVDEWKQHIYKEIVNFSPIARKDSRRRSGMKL

[23] = target: Tyrosine-protein kinase HCK (Homo sapiens, UniProt P08631); assay: Inhibition of Hck (unknown origin)
[24] = target: Serine/threonine-protein kinase WNK3 (Homo sapiens, UniProt Q9BYP7); assay: Inhibition of WNK3 (unknown origin)
[25] = target: High affinity nerve growth factor receptor (Homo sapiens, UniProt P04629); assay: Inhibition of TrkA (unknown origin)
[26] = target: Serine/threonine-protein kinase SIK1 (Homo sapiens, UniProt P57059); assay: Inhibition of SIK (unknown origin)

IC50 (Aurora kinase A) [nM]	IC50 (MIA PaCa-2 [1]) [nM]	IC50 (Aurora kinase B [2]) [nM]	Compound	also measured
3	1190	1	COc1cccc(F)c1C(=O)Nc1ccc(Nc2ccnc3[nH]c(=O)c4ccccc4c23)cc1	
1150		174	Nc1ccc(Nc2ccnc3[nH]c(=O)c4ccccc4c23)cc1	
615		79	O=C(Nc1ccc(Nc2ccnc3[nH]c(=O)c4ccccc4c23)nc1)c1ccccc1	
471			CNc1ccc(Nc2ccnc3[nH]c(=O)c4ccccc4c23)cc1	
2	209	0.5	O=C(Nc1ccc(Nc2ccnc3[nH]c(=O)c4ccccc4c23)cc1)c1cccc(F)c1F	
5	293	0.6	O=C(Nc1ccc(Nc2ccnc3[nH]c(=O)c4ccccc4c23)cc1)c1c(F)cccc1F	
7	409	0.8	O=C(Nc1ccc(Nc2ccnc3[nH]c(=O)c4ccccc4c23)cc1)c1ccc(F)c(F)c1	
3010		1440	O=c1[nH]c2nccc(Cl)c2c2ccccc12	
7	253	1	O=C(Nc1ccc(Nc2ccnc3[nH]c(=O)c4ccccc4c23)cc1)c1cccc(C(F)(F)F)c1F	
9	211		O=C(Nc1ccc(Nc2ccnc3[nH]c(=O)c4ccccc4c23)cc1)c1cc(F)cc(C(F)(F)F)c1	
7	823	0.7	O=C(Nc1ccc(Nc2ccnc3[nH]c(=O)c4ccccc4c23)cc1)c1cc(F)cc(F)c1	
1030			O=c1[nH]c2nccc(Nc3ccccc3)c2c2ccccc12	
3010			Nc1ccnc2[nH]c(=O)c3ccccc3c12	
3	2390	2	Cc1ccc(C(=O)Nc2ccc(Nc3ccnc4[nH]c(=O)c5ccccc5c34)cc2)cc1	
0.3	170	0.4	O=C(Nc1ccc(Nc2ccnc3[nH]c(=O)c4ccccc4c23)cc1)c1ccc(F)cc1C(F)(F)F	IC50 (LIM domain kinase 1): 18 nM; bioavailability [3]: 41%; IC50 [4]: 161 nM; IC50 [5]: 863 nM; clearance [6]: 19.7 mL/min/kg; Vd [7]: 1.48 L/kg; IC50 [8]: 706 nM; half-life [9]: 2.74 h; Cmax [10]: 321 ng/mL; Activity (MIA PaCa-2 [11]): Active; AUC [12]: 1440 ng·h/mL; IC50 [13]: 575 nM; IC50 [14]: 867 nM; AUC [15]: 4190 ng·h/mL; inhibition in vivo at 300 mg/kg (Mus musculus): 40%; IC50 (Aurora kinase B [16]): 52 nM; IC50 [17]: 959 nM; Cmax [18]: 3930 ng/mL; half-life [19]: 1.36 h
27	2710	6	O=C(Nc1ccc(Nc2ccnc3[nH]c(=O)c4ccccc4c23)cc1)c1ccc(C(F)(F)F)cc1	
7	919	1	O=C(Nc1ccc(Nc2ccnc3[nH]c(=O)c4ccccc4c23)cc1)c1cccc(F)c1	
88		21	O=C(Nc1ncc(Nc2ccnc3[nH]c(=O)c4ccccc4c23)cn1)c1ccccc1	
5540			O=c1[nH]c2ncccc2c2ccccc12	
7	2220	2	COc1ccccc1C(=O)Nc1ccc(Nc2ccnc3[nH]c(=O)c4ccccc4c23)cc1	
70		13	O=C(Nc1ccc(Nc2ccnc3[nH]c(=O)c4ccccc4c23)cn1)c1ccccc1	
4	405	1	O=C(Nc1ccc(Nc2ccnc3[nH]c(=O)c4ccccc4c23)cc1)c1ccccc1C(F)(F)F	
9	4990		O=C(Nc1ccc(Nc2ccnc3[nH]c(=O)c4ccccc4c23)cc1)c1ccc(C(F)(F)F)cc1F	
9	6250	2	O=C(Nc1ccc(Nc2ccnc3[nH]c(=O)c4ccccc4c23)cc1)c1ccccc1F	
4	719	1	O=C(Nc1ccc(Nc2ccnc3[nH]c(=O)c4ccccc4c23)cc1)c1ccc(F)cc1	
4	329	1	O=C(Nc1ccc(Nc2ccnc3[nH]c(=O)c4ccccc4c23)cc1)c1ccccc1	IC50 (LIM domain kinase 1): 36 nM; IC50 [4]: 41 nM; IC50 (Activated CDC42 kinase 1): 149 nM; IC50 [8]: 15 nM; IC50 [20]: 175 nM; solubility [21]: < 1 µM; IC50 [22]: 411 nM; IC50 [23]: 958 nM; IC50 [14]: 417 nM; IC50 (Aurora kinase B [16]): 208 nM; IC50 [24]: 401 nM; IC50 [25]: 819 nM; IC50 [26]: 211 nM
2	374	1	O=C(Nc1ccc(Nc2ccnc3[nH]c(=O)c4ccccc4c23)cc1)c1ccc(F)cc1F	

Source: ChEMBL document CHEMBL2380198, “SAR and evaluation of novel 5H-benzo[c][1,8]naphthyridin-6-one analogs as Aurora kinase inhibitors” (Bioorg Med Chem Lett, 2013)
